The structures appear in SMILES notation. Like-named read-outs stand apart in the source and are kept apart here.

One data set deals with 8226/I-R myeloma cells. Briefly: MTT growth inhibition, imexon-resistant 8226 myeloma cells. The following applies: for IC50: Homo sapiens, read-out: IC50; for Fold Resistance (IC50 resistant cells/IC50 sensitive cells): Table 4, 8226/I-R vs 8226/S. The data set is classed as cell-based, human. As for the experimental part: (§1) Microculture Tetrazolium (MTT) Assay for Tumor Cells
(§2) Tumors are disaggregated into single cell suspensions using mechanical, hypoosmotic, and/or enzymatic (trypsin) methods. The cells are plated at a concentration of 3-5×10^4 per […] well into plastic 96-well plates. Growth medium containing 5-10% (vol/vol) heat-inactivated fetal bovine serum and penicillin/streptomycin (both […]) are added prior to incubation at 37° C. for 6 days. Afterwards the medium containing the drug is removed, the cells are centrifuged in fresh medium or phosphate-buffered saline (pH 7.4). A tetrazolium dye, […]-2,5-diphenyl tetrazolium (MTT), is then added. (Mossman, T., J Immunol 65:55-63, 1983.) This dye forms a colored formazan product upon activation by mitochondrial reductases in viable cells. Typically, the formazan product is solubilized in acid-propanol or DMSO. The intensity of the color is proportional to viable cell numbers and this is quantitated by spectrophotometric absorbance at 570 nm on a micro ELISA plate reader. The results are calibrated in % control absorbance from untreated tumor cells. (Alley, et al., Cancer Res 48:589-601, 1988.)
(§3) The following unpublished studies were performed in vitro to develop and characterize a human myeloma cell line with resistance to imexon-induced cytotoxicity. The original (parental) 8226 cell line was developed by Matsuoka, et al. (Matsuoka, et al., Proc Soc Exp Biol Med 125:1246-1250, 1967). It is a lymphoblastoid cell line which stains for lambda light immunoglobulin production. It grows in vitro in suspension culture (non-adherent) and forms tumors when injected into SCID mice. (Skehan, et al., J Natl Cancer Inst 82:1107-1112, 1990.)
(§4) One exciting feature of our novel compounds is, that they work on imexon-resistant cells. An imexon-resistant 8226 myeloma cell line was selected by continuously exposing cells to gradually increasing concentrations of imexon up to 3.25 mg/mL. This cell line has slightly longer cell doubling time than 8226 sensitive cells (24 vs 20 hours). […] The dose response curve for imexon continuous exposure was determined using MTT assay. Each data point represents the mean of three experiments performed in 8 replicates.
(§5) We compared IC50 concentrations and there is a 4-fold resistance observed for the 8226/I-R cell line when the cells were continuously exposed to imexon for […] at 37° C. The degree of resistance was relatively unstable in the absence of the drug, with the resistant cells losing substantial resistance when maintained in imexon-free medium for 20 weeks (FIG. 2).
(§6) IC50 was measured by MTT assay. IC50 refer to the concentration by drug that results in 50% growth inhibition. A minimum of 2 assays were performed for each drug following 250 mg/mL imexon is equivalent to 6.5 cGy radiation in sensitive cells.
(§7) Using the colorimetric microculture tetrazolium (MTT) assay, imexon and 25-related analogs were studied for tumor growth inhibition in vitro. Imexon-induced DNA single strand breaks were assessed by alkaline elution. Cells were exposed to imexon for 1 hour prior to start of experiment. The fraction of ^14 C-labeled DNA retained on the filter is plotted against the time of elution. The cells included parental 8226 myeloma cells and the 8226 imexon-resistant cells exposed to drug (imexon or analog) continuously for 10 days at 37° C. At the end of the exposure period, the cells were analyzed for viability using the formazan-forming tetrazolium dye (MTT) assay.

The subject of the next data set is 8226/S myeloma cells. Briefly: MTT growth inhibition, parental 8226 myeloma cells. The data set is classed as cell-based, human. The following applies: Homo sapiens, read-out: IC50. The protocol: as §1, §2, §3, §4, §5, §6, §7
For data set [1], the system named is OVCAR-3 ovarian carcinoma cells. Conditions: cited from earlier work.
The next data set deals with MCF-7/ADR cells. The following applies: cited from earlier work.
In another data set the test system is WiDr MITOX cells. Conditions: cited from earlier work.
Data set [2] relates to L-1210 MDR leukemia cells. Conditions: cited from earlier work.
The subject of the next data set is MCF-7/MITOX cells. The following applies: cited from earlier work.
A further data set deals with MCF-7/D40 cells. The following applies: MCF-7/DOX40; cited from earlier work.
Data set [3] relates to DNA of 8226 myeloma cells. Briefly: Imexon-induced DNA single strand breaks by alkaline elution. Conditions: for DNA single strand breaks: 8226 cells, 10-500 μg/mL. It counts as cell-based, human. The protocol: as §7
These strand breaks are noted by an enhanced rate of ^14 C-DNA elution through the filters after a one-hour exposure to imexon (10-500 μg/mL) at 30° C. At high imexon concentrations of≥100 μg/mL, over 75% of the radiolabeled DNA is eluted through the filters over the test period. By comparison, control cell DNA is highly retained (>95%) on the filter over the same 24-hour elution period.

Data set [4] relates to advanced solid tumors in cancer patients. The following applies: cited from earlier work; for Clinical response: Phase I clinical trials.
For data set [5], the system named is human lymphoma, melanoma, and prostate cancer cell lines. The following applies: cited from earlier work.
Data set [6] can be described thus: Tolerability and activity on prolonged dosing in tumor-bearing mice and dogs. It counts as in vivo. Conditions: suggested by prior studies in mice and dogs.
Another data set can be described thus: Oral activity in mice. The data set is classed as in vivo.
In a further data set the test system is mast cell tumors. Conditions: cited from earlier work.
In data set [7] the test system is AIDS-related lymphoma / lymphoma cells. Briefly: Activity against lymphoma cells in vitro. It counts as cell-based. Conditions: Table 1B.
For data set [8] the following is noted: cited from earlier work.
The subject of a further data set is transplanted tumors. The following applies: rodents; cited from earlier work.
A short description of another data set: Myelosuppression. Conditions: in vivo.
The conditions of data set [9]: background statement; cited from earlier work.
For another data set, the system named is human tumor cell lines. Conditions: in culture; cited from earlier work.
The test system of data set [10] is human prostate cancer tumors. Put plainly: Activity in prostate cancer in SCID mouse model. The data set is classed as in vivo, human tumors in SCID mice. Conditions: Table 1B.
In data set [11] the test system is multiple myeloma (clonogenic assay). The following applies: cited from earlier work.

Usually IC50 stands for the midpoint of a concentration-inhibition curve. As to `COc1cccc2c1C(=O)c1c(O)c3c(c(O)c1C2=O)C[C@@](O)(C(=O)CO)C[C@@H]3O[C@H]1C[C@H](N)[C@H](O)[C@H](C)O1` [Doxorubicin], the “Cross-resistance of imexon-resistant cells” value in the data set on 8226/I-R myeloma cells (8226 imexon-resistant cells, MTT) is on record as “remains sensitive”. The 50% inhibitory concentration (IC50) amounted to 0.00032 µM with 8226/I-R myeloma cells (8226/I-R, MTT) and 0.00043 µM with 8226/S myeloma cells (8226/S, MTT). Also, the “Fold Resistance (IC50 resistant cells/IC50 sensitive cells)” value in the data set on 8226/I-R myeloma cells is listed as 0.79. Also, in data set [1], the “Resistance of OVCAR-3” value is recorded as “resistant in vitro to clinically relevant concentrations”. Moreover, the “Decrease in sensitivity to doxorubicin” value in the data set with MCF-7/ADR cells was 192 fold. Besides, in the data set with WiDr MITOX cells, the “Fold resistance of WiDr MITOX cells” value is listed as 8 fold. In data set [2], the “Cross-resistance of L-1210 MDR” value is recorded as “cross-resistant”. In addition, the “Resistance of MCF-7/MITOX” value in the data set on MCF-7/MITOX cells was “only partially resistant”.
With `COc1ccc(CCN(C)CCCC(C#N)(c2ccc(OC)c(OC)c2)C(C)C)cc1OC` (stereo not shown) [verapamil], the “Reversal of resistance” value is given as “sensitized (resistance reversed)” in the data set on MCF-7/D40 cells, “resistance can be reversed” in data set [2] and “resistance is not modulated (reversed)” in the data set on MCF-7/MITOX cells.
As to `N=C1NC(=O)N2CC12` (stereo not shown) [AMP 400, 4-imino-1,3-diazabicyclo[3.1.0]hexan-2-one], the “DNA single strand breaks” value in data set [3] (one-hour exposure, listed as Imexon) was “induced single strand breaks in both 8226 imexon-sensitive and resistant cells”; in data set [3] (one-hour exposure, listed as imexon), “induces concentration-dependent single-stranded breaks in tumor cell DNA”. Moreover, the “DNA strand breaks, resistant vs sensitive cells” value in data set [3] (given dose of imexon, p<0.05) is “fewer strand breaks in imexon-resistant cells than in sensitive cells”. The “Radiolabeled DNA eluted over the test period” value in data set [3] (imexon ≥100 μg/mL, one-hour exposure) is “over 75%”. The “Radiation equivalent of 250 mg/mL imexon” value in data set [3] (sensitive cells, 250 μg/mL imexon) turned out to be 6.5 cGy. The IC50 with 8226/I-R myeloma cells (8226/I-R, MTT) was 120 µM; in the data set on 8226/I-R myeloma cells (Table 5, imexon-resistant 8226), 8.5 µg/mL; in the data set with 8226/S myeloma cells (8226/S, MTT), 27 µM; in the data set with 8226/S myeloma cells (Table 5, Sensitive (parental) 8226) it was 1 µg/mL. Also, in the data set with 8226/I-R myeloma cells, the “Fold Resistance (IC50 resistant cells/IC50 sensitive cells)” value is 4.44. Moreover, the “Fold Resistance of IC50 R/IC50 's” value with 8226/I-R myeloma cells (Table 5, imexon-resistant vs sensitive 8226) is given as 4.5. Moreover, in the data set on 8226/I-R myeloma cells (continuous exposure for 5 days at 37° C), the Fold resistance is given as 4 fold. The “Clinical response” value in data set [4] (listed as Imexon) is “produced objective responses or stabilized neoplastic diseases in cancer patients”; in data set [4] (listed as parent compound), “parent compound”. Besides, in [4] (advanced tumors), the “Additional patients with disease stabilization” value is 8 patients. Besides, the “Duration of disease stabilization” value in data set [4] (advanced tumors) is given as 4-24 months. Also, the “Objective responses, evaluable patients” value in data set [4] (breast cancer), in data set [4] (lung cancer) and in data set [4] (melanoma) was 1/7 in each case. In addition, the figures for the “Duration of complete disappearance of measurable disease” value in data set [4] (lung cancer) and in data set [4] (melanoma) were 33 months and 42 months, respectively. Further, the “Stable disease, number of patients” value in data set [4] (one NSCLC, four breast cancer, one liver cancer) is reported as 6 patients. In data set [4] (one patient, metastatic NSCLC), the “Duration of complete remission” value is “over 14 years”. For the same compound, in data set [5], the “Activity against human tumor cell lines in SCID mice” value is “active against human lymphoma, melanoma, and prostate cancer cell lines in SCID mice”. For the same compound, the Maximally-tolerated human dose result in data set [6] is given as “approximately 500 mg/m^2 /day”. Further, the “Oral activity” value in the data set “Oral activity in mice” is “not active orally in mice”. In the data set on mast cell tumors, the “Objective responses in dogs” value is on record as “Objective responses were observed in dogs with mast cell tumors”. Moreover, in data set [7], the “Activity in lymphoma in vitro” value is reported as “active in vitro”. For the same compound, the “Tolerability” value in data set [8] (Phase I, Europe, 1985) was “well tolerated”. The “Nausea (mild, transient)” value in [8] (patients) is reported as 13%. Moreover, the Vomiting in data set [8] (patients) is recorded as 23%. In addition, the “Activity against transplanted tumors” value in the data set with transplanted tumors is “active against a variety of transplanted tumors in rodents”. In addition, the “Myelosuppression” value in the data set “Myelosuppression” is “has not demonstrated myelosuppressive toxicity”; in data set [9], “not myelosuppressive”. Besides, the “Activity against human tumor cell lines” value in the data set with human tumor cell lines is given as “active against a variety of human tumor cell lines in culture”. Besides, the “Activity in prostate cancer” value in data set [10] was “active in”. In [11], the “Cytotoxicity to multiple myeloma” value was “selectively cytotoxic to multiple myeloma in the clonogenic assay”.

Values taken from patent publication US6297230A, “Cyanoaziridines for treating cancer” (priority 2000, dated 2001).
